As usually defined, the IC50 is the concentration needed to halve the response being measured.

Structures are written as SMILES. Where only a bound is given, the exact number is not on record here.

hGYS1 enzyme (recombinant hGYS1/GN1 protein), sequence (P13807 whole entry): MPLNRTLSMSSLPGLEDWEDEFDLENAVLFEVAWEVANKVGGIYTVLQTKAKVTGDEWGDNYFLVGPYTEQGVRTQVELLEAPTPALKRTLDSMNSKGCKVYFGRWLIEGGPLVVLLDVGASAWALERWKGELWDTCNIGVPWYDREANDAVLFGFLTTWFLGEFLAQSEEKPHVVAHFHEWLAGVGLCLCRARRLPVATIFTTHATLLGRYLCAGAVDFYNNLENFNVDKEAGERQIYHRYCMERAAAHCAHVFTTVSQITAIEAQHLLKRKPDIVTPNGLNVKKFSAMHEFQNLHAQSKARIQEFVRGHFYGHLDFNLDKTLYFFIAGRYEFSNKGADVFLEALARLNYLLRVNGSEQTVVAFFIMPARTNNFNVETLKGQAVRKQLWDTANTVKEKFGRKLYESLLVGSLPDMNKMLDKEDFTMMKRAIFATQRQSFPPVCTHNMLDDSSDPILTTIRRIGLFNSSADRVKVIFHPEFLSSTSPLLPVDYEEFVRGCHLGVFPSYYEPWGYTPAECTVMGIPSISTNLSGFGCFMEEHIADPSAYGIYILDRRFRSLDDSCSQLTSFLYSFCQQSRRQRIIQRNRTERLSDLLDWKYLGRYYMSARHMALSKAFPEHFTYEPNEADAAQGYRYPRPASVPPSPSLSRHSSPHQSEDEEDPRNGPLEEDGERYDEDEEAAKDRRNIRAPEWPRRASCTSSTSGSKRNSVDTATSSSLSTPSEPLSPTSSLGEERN
hGYS1 enzyme (recombinant hGYS1/GN1 protein), sequence (P46976 whole entry partner): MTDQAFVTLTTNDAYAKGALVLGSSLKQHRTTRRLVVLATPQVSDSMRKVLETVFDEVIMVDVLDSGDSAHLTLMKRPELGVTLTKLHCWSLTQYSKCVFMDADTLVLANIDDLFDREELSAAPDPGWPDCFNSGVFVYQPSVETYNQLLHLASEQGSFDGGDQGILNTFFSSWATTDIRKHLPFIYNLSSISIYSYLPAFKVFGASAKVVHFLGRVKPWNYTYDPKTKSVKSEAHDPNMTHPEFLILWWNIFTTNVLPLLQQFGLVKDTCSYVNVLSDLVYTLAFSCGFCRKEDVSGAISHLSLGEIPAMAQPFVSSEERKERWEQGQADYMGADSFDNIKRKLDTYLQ

The target in this assay is hGYS1 enzyme (recombinant hGYS1/GN1 protein) (Homo sapiens (Human), UniProt P13807). The experiment in a line: GYS1 coupled enzyme assay (PK/LDH). The format is biochemical. The following applies: hGYS1/GN1 50 nM, UDP-Glucose 0.8 mM, G6P 1 mM; geometric mean of at least 2 runs. The text has this:
The GYS1 coupled enzyme assay is a kinetic biochemical assay that indirectly quantifies the rate of glycogen synthesis by coupling the conversion of GYS1 substrate UDP-glucose into UDP with downstream enzymatic reactions. UDP is released from UDP-glucose as glucose monomers are linked into the growing glycogen strand by GYS1. The coupled assay then proceeds with pyruvate kinase utilizing UDP and phospho(enol)pyruvate (PEP) to form pyruvate. Lactate dehydrogenase then converts pyruvate and NADH into lactate and NAD+. Oxidation of NADH to NAD+ can be measured continuously with a plate reader by quantifying the decrease in NADH absorbance at 340 nm over time.
Compounds that inhibit the hGYS1 enzyme and, subsequently, the downstream conversion of NADH to NAD+, were tested using assay ready plates (black, clear bottom 384 well plates) in a final DMSO reaction volume of 2.5% DMSO. The Assay Buffer contained 50 mM Tris pH 7.5, 2 mM MgCl2, and 100 mM KCl. Fresh stocks of BSA at a final concentration of 0.02% and TCEP at 1 mM were added before splitting buffer into hGYS1 buffer and substrate buffer. To the hGYS1 buffer, rabbit liver glycogen was added at a final concentration of 0.2% glycogen. Glucose-6-Phosphate was added at 1 mM, recombinant hGYS1/GN1 protein was added at 50 nM to the substrate buffer, phosphoenolpyruvate (PEP) was added at 2 mM, UDP-Glucose was added at 0.8 mM, NADH) was added at 0.6 mM, and Pyruvate Kinase/Lactate Dehydrogenase was added at 20 units/mL. The reaction was initiated by mixing hGYS1 buffer and substrate buffer at a 1:1 ratio. Both buffers were plated using a liquid dispensing device with hGYS1 buffer plated first followed by the substrate buffer. Plates were spun briefly to eliminate air bubbles and are immediately read in continuous mode at an absorbance of 340 nm, for 10 time points in one-minute increments, for a total of 10 minutes. The slope from these 10 time points was normalized to the positive and negative control wells. The duplicate % inhibition values are then averaged and fit to a Hill equation for dose response according to the Levenberg-Marquardt algorithm with the Hill equation maximum set to 100 and the minimum set to 0.
Unless otherwise specified, IC50 values are reported as the geometric mean of at least 2 assay runs on separate days. Each run represents the average of a technical replicate, where each compound was assayed twice in the same plate. […] A superscript “#” symbol in Table 2 indicates results from a single assay run.
Take `Cc1cn(CC(=O)N2C[C@H](F)C[C@H]2C(=O)N[C@@H](c2ccccc2)c2ccc(C(C)C)c(F)n2)c(=O)[nH]c1=O` (relative stereo) [Compound 778, (2S,4R)-4-fluoro-N-[(R*)-[6-fluoro-5-(propan-2-yl)pyridin-2-yl](phenyl)methyl]-1-[2-(5-methyl-2,4-dioxo-1,2,3,4-tetrahydropyrimidin-1-yl)acetyl]pyrrolidine-2-carboxamide]: the IC50 was found to be 0.381 µM.
As for `CC(C)c1cnc(C(NC(=O)[C@@H]2C[C@@H](F)CN2C(=O)Cc2cnn[nH]2)c2ccccc2)cc1C(F)F` (single isomer, unassigned) [Compound 606, (2S,4R)-N-[(S) or (R)-[4-(difluoromethyl)-5-(propan-2-yl)pyridin-2-yl](phenyl)methyl]-4-fluoro-1-[2-(1H-1,2,3-triazol-5-yl)acetyl]pyrrolidine-2-carboxamide], the figure is 1.13 µM; as for `CC(=O)NCC(=O)N1CCC[C@H]1C(=O)NC(c1ccc(C2CC2)c(F)c1)c1ccn[nH]1` (single isomer, unassigned) [Compound 615, (2S)-N-[(R) or (S)-(4-cyclopropyl-3-fluorophenyl)(1H-pyrazol-5-yl)methyl]-1-(2-acetamidoacetyl) pyrrolidine-2-carboxamide], 1.58 µM.
As for `CC(C)c1ccc(C(NC(=O)[C@@H]2C[C@@H](F)CN2C(=O)Cc2cnn[nH]2)c2ccc(F)cn2)cc1F` (single isomer, unassigned) [Compound 616, (2S,4R)-4-fluoro-N-[(R) or (S)-[3-fluoro-4-(propan-2-yl)phenyl](5-fluoropyridin-2-yl)methyl]-1-[2-(1H-1,2,3-triazol-5-yl)acetyl]pyrrolidine-2-carboxamide], the figure is 1.32 µM; as for `CC(C)c1ccc(C(NC(=O)[C@@H]2C[C@@H](F)CN2C(=O)Cc2cnn[nH]2)c2cncc(F)c2)cc1F` (single isomer, unassigned) [Compound 617, (2S,4R)-4-fluoro-N-[(R) or (S)-[3-fluoro-4-(propan-2-yl)phenyl](5-fluoropyridin-3-yl)methyl]-1-[2-(1H-1,2,3-triazol-5-yl)acetyl]pyrrolidine-2-carboxamide], 1.64 µM.
As for `CC(C)c1ccc(C(NC(=O)[C@@H]2C[C@@H](F)CN2C(=O)Cc2cnn[nH]2)c2ccnc(N)c2)cc1F` (single isomer, unassigned) [Compound 618, (2S,4R)-N-[(S) or (R)-(2-aminopyridin-4-yl)[3-fluoro-4-(propan-2-yl)phenyl]methyl]-4-fluoro-1-[2-(1H-1,2,3-triazol-5-yl)acetyl]pyrrolidine-2-carboxamide], the figure is 1.52 µM; as for `CC(C)c1ccc(C(NC(=O)[C@@H]2C[C@@H](F)CN2C(=O)Cc2cnn[nH]2)c2ccncc2F)cc1F` (single isomer, unassigned) [Compound 619, (2S,4R)-4-fluoro-N-[(R) or (S)-[3-fluoro-4-(propan-2-yl)phenyl](3-fluoropyridin-4-yl)methyl]-1-[2-(1H-1,2,3-triazol-5-yl)acetyl]pyrrolidine-2-carboxamide], 1.16 µM.
With `CC(C)c1ccc(C(NC(=O)[C@@H]2C[C@@H](F)CN2C(=O)Cc2cnn[nH]2)c2cccc(N)n2)cc1F` (single isomer, unassigned) [Compound 621, (2S,4R)-N-[(R) or (S)-(6-aminopyridin-2-yl)[3-fluoro-4-(propan-2-yl)phenyl]methyl]-4-fluoro-1-[2-(1H-1,2,3-triazol-5-yl)acetyl]pyrrolidine-2-carboxamide], the IC50 is 0.555 µM.
The value for `CC(=O)N1CCC[C@H]1C(=O)NC(c1ccc(C(C)C)cn1)c1ccccc1C` (single isomer, unassigned) [Compound 641, (2S)-1-acetyl-N-[(S) or (R)-(2-methylphenyl)[5-(propan-2-yl)pyridin-2-yl]methyl]pyrrolidine-2-carboxamide] was 2.95 µM; that for `CC(=O)NCC(=O)N1CCC[C@H]1C(=O)NC(c1ccc(C2CC2)c(F)c1)c1cccc2[nH]c(=O)oc12` (single isomer, unassigned) [Compound 643, (2S)-N-[(R) or (S)-(4-cyclopropyl-3-fluorophenyl)(2-oxo-2,3-dihydro-1,3-benzoxazol-7-yl)methyl]-1-(2-acetamidoacetyl) pyrrolidine-2-carboxamide] was 2.19 µM.
As for `O=C(NC(c1ccc(C2CC2)c(F)c1)c1cccc2[nH]c(=O)[nH]c12)[C@@H]1CCCN1C(=O)Cc1cnn[nH]1` (single isomer, unassigned) [Compound 648], the figure is 0.616 µM; as for `CC(C)c1c(F)cc(C(NC(=O)[C@@H]2C[C@@H](F)CN2C(=O)Cc2cnn[nH]2)c2ccccc2)cc1F` (single isomer, unassigned) [Compound 666, (2S,4R)-N-[(R) or (S)-[3,5-difluoro-4-(propan-2-yl)phenyl](phenyl)methyl]-4-fluoro-1-[2-(1H-1,2,3-triazol-5-yl)acetyl]pyrrolidine-2-carboxamide], 2.27 µM.
The value for `O=C(NC(c1ccccc1)c1ccc(C2CCC2)c(F)c1)[C@@H]1C[C@@H](F)CN1C(=O)Cc1cnn[nH]1` (single isomer, unassigned) [Compound 673, (2S,4R)-N-[(R) or (S)-(4-cyclobutyl-3-fluorophenyl)(phenyl)methyl]-4-fluoro-1-[2-(1H-1,2,3-triazol-5-yl)acetyl]pyrrolidine-2-carboxamide] was 1.74 µM; that for `CC(=O)N1C[C@H](F)C[C@H]1C(=O)N[C@@H](c1cccc(-c2nnc[nH]2)c1)c1ccc(C(C)C)c(F)n1` (single isomer, unassigned) [Compound 688, (2S,4R)—N—((S) or (R)-(3-(4H-1,2,4-triazol-3-yl)phenyl)(6-fluoro-5-isopropylpyridin-2-yl)methyl)-1-acetyl-4-fluoropyrrolidine-2-carboxamide] was 0.106 µM; that for `CC(=O)N1C[C@H](F)C[C@H]1C(=O)N[C@H](c1cccc(-c2nnc[nH]2)c1)c1ccc(C(C)C)c(F)n1` (single isomer, unassigned) [Compound 689, (2S,4R)—N—((R) or (S)-(3-(4H-1,2,4-triazol-3-yl)phenyl)(6-fluoro-5-isopropylpyridin-2-yl)methyl)-1-acetyl-4-fluoropyrrolidine-2-carboxamide] was more than 10 µM.
`CC(=O)N1C[C@H](F)C[C@H]1C(=O)NC(c1cccc(-c2ccno2)c1)c1ccc(C(C)C)c(F)n1` (single isomer, unassigned) [Compound 698, (2S,4R)-1-acetyl-4-fluoro-N-[(S) or (R)-[6-fluoro-5-(propan-2-yl)pyridin-2-yl][3-(1,2-oxazol-5-yl)phenyl]methyl] pyrrolidine-2-carboxamide]: the half-maximal inhibitory concentration (IC50) came out at 0.151 µM.
Consider `CC(=O)N1C[C@H](F)C[C@H]1C(=O)NC(c1cccc(-n2cccn2)c1)c1ccc(C(C)C)c(F)n1` (single isomer, unassigned) [Compound 699, (2S,4R)-1-acetyl-4-fluoro-N-[(S) or (R)-[6-fluoro-5-(propan-2-yl)pyridin-2-yl][3-(1H-pyrazol-1-yl)phenyl]methyl] pyrrolidine-2-carboxamide], for which the half-inhibitory concentration (IC50) is 0.051 µM.
The value for `CC(=O)N1C[C@H](F)C[C@H]1C(=O)NC(c1cccc(-c2nnco2)c1)c1ccc(C(C)C)c(F)n1` (single isomer, unassigned) [Compound 700, (2S,4R)-1-acetyl-4-fluoro-N-[(S) or (R)-[6-fluoro-5-(propan-2-yl)pyridin-2-yl][3-(1,3,4-oxadiazol-2-yl)phenyl]methyl] pyrrolidine-2-carboxamide] was 0.321 µM; that for `CC(C)c1ccc([C@@H](NC(=O)[C@@H]2C[C@@H](F)CN2C(=O)Cc2cc[nH]n2)c2ccccc2)cc1` (stereo in doubt) [Compound 225, (2RS,4R)-4-fluoro-N-[(S)-phenyl[4-(propan-2-yl)phenyl]methyl]-1-[2-(1H-pyrazol-3-yl)acetyl]pyrrolidine-2-carboxamide] was 0.044 µM.
As for `CC(=O)N1CCC2(CC(C(=O)N3C[C@H](F)C[C@H]3C(=O)N[C@@H](c3ccccc3)c3ccc(C(C)C)cc3)=NO2)C1` (stereo partly drawn) [Compound 4, (2S,4R)-{7-acetyl-1-oxa-2,7-diazaspiro[4.4]non-2-ene-3-carbonyl}-4-fluoro-N-[(S)-phenyl[4-(propan-2-yl)phenyl]methyl]pyrrolidine-2-carboxamide], the IC50 is 0.998 µM.

Values taken from US11814367B2, “Inhibitors of glycogen synthase 1 (GYS1) and methods of use thereof” (Maze Therapeutics, Inc., priority 2021, dated 2023).
